Test results as given in PMC3903478, “Expression and Properties of the Highly Alkalophilic Phenylalanine Ammonia-Lyase of Thermophilic Rubrobacter xylanophilus” (PLoS ONE, 2014).

Target: T1, RxPAL (phenylalanine ammonia-lyase of Rubrobacter xylanophilus) (Rubrobacter xylanophilus, UniProt Q1AV79)
T1 construct: gene Rxyl_1739; full length (540 AA), N-terminal His6-tag kept, codon-optimised synthetic gene in pBAD-HisB, expressed in E. coli TOP10, Ni-NTA purified; MIO prosthetic group formed from ASG
Test: UV spectrophotometry at […] nm, cinnamic acid formation
Format: biochemical
Conditions: 20 mM L-phenylalanine, 0.1 M buffers pH 4.0-12, ionic strength 250 mM

T1 sequence (Q1AV79 entry or part of it): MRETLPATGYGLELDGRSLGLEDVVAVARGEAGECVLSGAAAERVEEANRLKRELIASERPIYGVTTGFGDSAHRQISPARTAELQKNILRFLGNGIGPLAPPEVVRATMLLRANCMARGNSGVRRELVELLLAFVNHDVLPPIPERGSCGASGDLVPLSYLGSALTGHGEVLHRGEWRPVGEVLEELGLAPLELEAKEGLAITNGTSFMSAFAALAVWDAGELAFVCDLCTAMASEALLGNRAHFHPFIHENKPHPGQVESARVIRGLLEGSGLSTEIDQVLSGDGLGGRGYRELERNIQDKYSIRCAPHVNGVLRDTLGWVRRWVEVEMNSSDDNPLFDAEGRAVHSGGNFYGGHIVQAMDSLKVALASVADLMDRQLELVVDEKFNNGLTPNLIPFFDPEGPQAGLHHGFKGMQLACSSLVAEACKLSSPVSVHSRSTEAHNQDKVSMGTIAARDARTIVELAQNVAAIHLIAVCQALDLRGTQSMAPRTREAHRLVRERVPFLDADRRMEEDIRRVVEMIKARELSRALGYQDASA

SMILES: N[C@@H](Cc1ccccc1)C(=O)O [L-phenylalanine]
- UV spectrophotometry at 290 nm, cinnamic acid formation: Progress of ammonia elimination from L-phenylalanine was monitored by detection of (E)-cinnamic acid production
